Assay results published in patent US7737256B2, “Antibody against uPA/uPAR” (Fondazione Centro San Raffaele Del Monte Tabor, priority 2001, dated 2010).

Key:
[1] = tested on: HIV-1 in U1 cells; test: PMA-induced HIV-1 reactivation in U1 cells (RT activity); type: cell-based
Method: Cell Lines p U1 cells were stimulated at the density of 2×10^5 cells per ml in RPMI 1640 (Whittaker M. A. Bioproducts, Walkerville, Md.) containing 10% FCS. Cells were preincubated with uPA, uPAR, suPA, R2, R3, R4, R5 antibodies for 20 min at 37° C. prior to addition of stimuli. U1 parental cell line U937 was used as a control in the transfection experiments. U937 cells were purchased from ATCC and maintained in RPMI 1640 medium in the presence of FCS before and after infection with the X4 HIV-1LAI/IIIB. For infection, cells were seeded at 2×10^5 cells/ml in 96-well flat bottomed plates (Falcon, Becton-Dickinson Labware, Lincoln Park, N.J.) and infected with 1−2×10^7 virus particles diluted from a stock of pelleted virus (Advanced Biotechnology, Inc., Columbia, Md.). After infection, 2 h at 37° C., cells were washed and resuspended in RPMI 1640 medium.
Viral expression was monitored by determination of Mg^2+-dependent Reverse Trascriptase (RT) activity in culture supernatants (Poli, 1990). In particular, 5 microliters of supernatants was added to 25 microliters of a mixture containing poly(A), oligo(dT) (Pharmacia Fine Chemicals, Piscataway, N.J.), MgC12, and 32P-labeled deoxythymidine 5′-triphosphate (dTTP) (Amersham Corp., Arlington Heights, Ill.), and incubated for 2 h at 37°°C. 6 microliters of the mixture was spotted onto DE81 paper, air dried, washed five times in 2× SSC buffer, and two additional times in 95% ethanol. The paper was then dried and counted on a scintillation counter (LS 5000, Beckman Instruments, Inc., Fullerton, Calif.).
For all experiments, culture supernatants were collected every day for five days, in the case of cell line, or every three days for infection of U937 and primary cells. Reagents were replenished every time culture medium was changed. Data representative of one out of three independent experiments are shown. Results are presented as means of triplicate cultures, and the error bar show the standard deviation from the mean.

[2] = tested on: THP-1 cells; test: chemotaxis of THP-1 cells (modified Boyden chambers); type: cell-based, human
Method: (§1) Chemotaxis assays were performed as described (Degryse, 1999) with modified Boyden chambers using filters (5 μm pore size, Corning) treated with collagen I (100 μg/ml) and fibronectin (10 μg/ml, Boehringer Mannheim). 20,000-40,000 cells in serum-free DMEM were added to the upper well while the chemoattractants were added to the lower well. When present, antibodies or desensitizing molecules were pre-incubated with the cells for one hour and were then added to both wells of Boyden chambers during the chemotaxis assay. Migration lasted for […] in the case of THP-1 cells and 4-6 hours for the HEK293 or HEK293/FPRL1 cells. After migration at 37° C., cells remaining on the upper surface of filters were scraped off, the filters were fixed in methanol and stained in a solution of 10% (w/v) crystal violet in 20% (v/v) methanol. The experiments were performed in triplicate and the results presented represent the mean ±SD of the number of cells counted in ten high power fields per filter and are representative of at least three experiments. Random cell migration, i. e. migration in the absence of chemoattractant, was given the arbitrary value of 100%.

[3] = chemotaxis-promotion by uPAR peptides (data not shown); type: cell-based
[4] = tested on: HEK293 cells; test: chemotaxis of HEK293 cells; type: cell-based, human; conditions: untransfected HEK293, FIG. 10
Method: (§2) The THP-1 cells used in the present example have been previously described (Resnati, 1996). Human HEK293 cells were kindly donated by Dr. Hal Chapman and human HEK293/FPRL1 from Dr. J. M. Wang. […] HEK293/FPRL1 cells have been generated by transfection of FPRL1 cDNA in HEK293 cells (Murphy, 1996).
as §1, with “Random cell migration, i. e. migration in the absence of chemoattractant, was given the arbitrary value of 100%.” left out

[5] = tested on: Human peripheral blood monocytes; test: chemotaxis of peripheral blood monocytes; type: cell-based; conditions: fresh human monocytes, FIG. 13
Method: as §1
THP-1 cells have been described before (Resnati, 1996). […] The purity of the separated populations was determined by flow cytometry analyses with anti-CD14 monoclonal antibodies.

[6] = tested on: HEK293/FPRL1 cells; test: chemotaxis of HEK293 transfected with FPRL1/LXA4R; type: cell-based, human; conditions: FIG. 10
Method: as §2
as §1, with “Random cell migration, i. e. migration in the absence of chemoattractant, was given the arbitrary value of 100%.” left out

[7] = molecular target: FPRL1/LXA4R, seven trans-membrane G-protein-coupled receptor (human) (UniProt P25090); test: cell-based or functional assay
UniProt P25090, sequence (P25090 whole entry): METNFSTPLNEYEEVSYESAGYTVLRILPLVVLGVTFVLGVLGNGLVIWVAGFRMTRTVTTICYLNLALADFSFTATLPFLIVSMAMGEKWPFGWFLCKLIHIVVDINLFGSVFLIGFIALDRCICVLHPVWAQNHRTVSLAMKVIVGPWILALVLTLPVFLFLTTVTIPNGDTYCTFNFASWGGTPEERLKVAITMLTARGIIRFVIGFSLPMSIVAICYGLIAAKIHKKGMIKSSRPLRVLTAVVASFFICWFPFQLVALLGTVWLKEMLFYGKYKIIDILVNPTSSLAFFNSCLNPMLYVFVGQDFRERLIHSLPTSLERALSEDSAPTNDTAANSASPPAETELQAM

## suPAR: recombinant soluble uPAR which specifically binds pro-uPA
[1]; with pro-uPA, FIG. 2D, FIG. 3
  effect on the inhibition of PMA-induced HIV-1 expression by pro-uPA: blocked

## CSCC[C@H](NC=O)C(=O)N[C@@H](CC(C)C)C(=O)N[C@@H](Cc1ccccc1)C(=O)O [fMLP, formyl-methionyl-leucyl-phenylalanine]
[2]; 20 μM
  de-sensitization against D2D388-279 and ATF: de-sensitized
[2]; THP-1 cells, FIG. 9B
  effect on MCP-1 chemotaxis (de-sensitization): did not affect
[2]; THP-1 cells, FIG. 9B, read-out: concentration inhibiting D2D388-279 chemotaxis by 50% (de-sensitization)
  IC50: 10 to 20 µM
[2]; THP-1 cells, very high concentrations (200 μM)
  effect on MCP-1 chemotaxis (de-sensitization): marginally

## SRSRY (listed as Homo sapiens)
[3]
  chemotaxis-promotion: active

## TGF-β [reference compound]
[1]; pro-uPA 10 nM, TGF-beta 5 ng/ml, alone or combined, FIG. 4C
  inhibition of PMA-induced HIV-1 replication/expression: 60%

## ATF: amino terminal fragment of uPA with full receptor-binding and no enzymatic activity
[1]; PMA 10 nM, FIG. 2
  effect on PMA-induced HIV-1 expression: fully reproduces the pro-uPA effect
[2]; THP-1 cells
  induction of chemotaxis: induce chemotaxis
[4]
  chemotactic response of the cells: do not respond

## AVTYSRSRYLEC (listed as Homo sapiens)
[3]
  chemotaxis-promotion: active
[3]; peptide cleaved with plasmin, data not shown
  chemotaxis-promotion after cleavage with plasmin: destroyed the activity

## MCP-1: monocytes chemotactic protein-1 [reference compound]
[2]; THP-1 cells
  induction of chemotaxis: induce chemotaxis
[5]
  induction of chemotaxis: induce chemotaxis

## D2D388-279: chymotrypsin-cleaved, soluble, purified form of uPAR endowed with potent chemotactic activity
[4]
  chemotactic response of the cells: do not respond
[6]
  chemotactic response of the cells: respond well
  concentration of maximum chemotactic response: about 0.1 nM
[5]
  induction of chemotaxis: induce chemotaxis

## D2D388-278, D2D3 fragment obtained by cleavage of suPAR with chymotrypsin (from UniProt Q03405 110-300) (receptor)
[7]
  chemotaxis of HEK293 cells transfected with FPRL1/LXA4R: 0.1 nM
